Data from patent publication US20180201650A1 (BGI SHENZHEN, priority 2014, published 2018).

Test system: HVA calcium channel
Type: cell-based, rat

COC(=O)C1=C(C)NC(C)=C(C(=O)OC)C1c1ccccc1[N+](=O)[O-] [Nifedipine, reference compound]
current after loading (pA): −734.31 pA
current before loading (pA): −1471.35 pA
inhibition rate (%) (10 μM): 50.09%
